Test results published in BigSolDB 2.1.

Conditions: in water

**Q.** For `O=C(O)CCCC(=O)O`, which solubility (mole fraction) (288.05 K) is on record?
**A.** 0.125

**Q.** What about the solubility (mole fraction) (292.95 K) of the same molecule?
**A.** 0.151

**Q.** What about the solubility (mole fraction) (297.85 K) of the same molecule?
**A.** 0.176

**Q.** And the solubility (mole fraction) (303.25 K)?
**A.** 0.204

**Q.** And the solubility (mole fraction) (308.05 K)?
**A.** 0.232

**Q.** And the solubility (mole fraction) (312.95 K)?
**A.** 0.26

**Q.** And the solubility (mole fraction) (318.05 K)?
**A.** 0.297

**Q.** And the solubility (mole fraction) (322.25 K)?
**A.** 0.328

**Q.** What about the solubility (mole fraction) (326.75 K) of the same molecule?
**A.** 0.361

**Q.** What about the solubility (mole fraction) (330.85 K) of the same molecule?
**A.** 0.4
